The nature of test [1]: Cytotoxicity against human HeLa cells by trypan blue dye exclusion method. The format is functional, cell-based.
Test [2] can be described thus: Cytotoxicity against human Bcap32 cells by trypan blue dye exclusion method. The test is classed as functional, cell-based.
A short description of test [3]: Cytotoxicity against human Bel7470 cells by trypan blue dye exclusion method. The test is classed as functional, cell-based.
A short description of test [4]: Cytotoxicity against mouse P388 cells. The test is classed as functional, cell-based.
Test [5] can be described thus: Cytotoxicity against human A549 cells. The format is functional. The conditions noted are these: read-out: ED50 (the source's name).

`O=C1C=CC[C@H]([C@@H](O)[C@H](O)c2ccccc2)O1`: the IC50 in test [1] was 12.8 µM; in test [2], 54.7 µM; in test [3], 4.1 µM.

For the compound `O=C1C=CC[C@H]([C@H](O)[C@H](O)c2ccccc2)O1` [GONIODIOL], the half-maximal inhibitory concentration (IC50) in test [4] was 19.5 µM. For the same compound, in test [5], the EC50 is 0.51 µM.

In general, IC50 refers to the concentration that gives 50% inhibition. A higher IC50 goes with weaker potency in that assay.
